According to PubChem BioAssay (NCI):
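Values below derive from 48-hour exposures of cells grown in 96-well plates, with endpoints linearly interpolated between the two concentrations bracketing the appropriate inhibition level. GI50 = concentration required for 50% inhibition of growth. TGI marks complete inhibition of growth.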

Experiments:
Assay in all cases: inhibition of tumour cell growth, NCI panel, 48 h
786-0 renal = tested on: 786-0 renal
COLO 205 colon = tested on: COLO 205 colon
HCT-116 colon = tested on: HCT-116 colon
K-562 leukemia = tested on: K-562 leukemia
SF-539 CNS = tested on: SF-539 CNS
SK-MEL-5 melanoma = tested on: SK-MEL-5 melanoma
SNB-19 CNS = tested on: SNB-19 CNS
T-47D breast = tested on: T-47D breast
HL-60(TB) leukemia = tested on: HL-60(TB) leukemia
IGROV1 ovarian = tested on: IGROV1 ovarian

SMILES | TGI (786-0 renal) [µM] | TGI (COLO 205 colon) [µM] | TGI (HCT-116 colon) [µM] | TGI (K-562 leukemia) [µM] | TGI (SF-539 CNS) [µM] | TGI (SK-MEL-5 melanoma) [µM] | TGI (SNB-19 CNS) [µM] | TGI (T-47D breast) [µM] | TGI (HL-60(TB) leukemia) [µM] | TGI (IGROV1 ovarian) [µM] | GI50 (HCT-116 colon) [µM] | GI50 (COLO 205 colon) [µM] | GI50 (HL-60(TB) leukemia) [µM] | GI50 (IGROV1 ovarian) [µM] | GI50 (K-562 leukemia) [µM] | GI50 (SF-539 CNS) [µM] | GI50 (SK-MEL-5 melanoma) [µM] | GI50 (SNB-19 CNS) [µM] | GI50 (T-47D breast) [µM]
CCCN=C1NC(C)=CSC(Nc2ccccc2)=C1C#N | > 100 | > 100 | > 100 | > 100 | > 100 | > 100 | > 100 | > 100 | – | – | – | – | – | – | – | – | – | – | –
OCc1ccc2c(c1)CC1(Cc3ccccc3C1)C2 | 29.6 | 31.2 | 35.5 | 38.1 | 44.3 | 23.6 | – | > 100 | 67.4 | – | – | – | – | – | – | – | – | – | –
CSc1nnnc2ccccc12 | > 100 | > 100 | > 100 | > 100 | > 100 | > 100 | > 100 | > 100 | > 100 | > 100 | – | – | – | – | – | – | – | – | –
NS(=O)(=O)c1ccc(-c2ccc([As](=O)(O)O)cc2)cc1 | > 100 | > 100 | > 100 | > 100 | > 100 | > 100 | > 100 | > 100 | > 100 | > 100 | – | – | – | – | – | – | – | – | –
CCOc1ccc2c(c1)C(/C(C(Cl)=C(Cl)Cl)=[N+](/[O-])OC(=O)c1ccccc1)=N2 | > 100 | > 100 | > 100 | > 100 | > 100 | > 100 | > 100 | > 100 | > 100 | – | – | – | – | – | – | – | – | – | –
[N-]=[N+]=Nc1cc(=O)[nH]c2ccccc12 | > 100 | > 100 | > 100 | > 100 | > 100 | > 100 | > 100 | > 100 | – | > 100 | – | – | – | – | – | – | – | – | –
CCOC(=O)Cc1[nH]c(C(=O)c2ccccc2)cc1C(=O)c1ccccc1 | > 10 | 48.7 | 33.4 | > 10 | – | > 100 | > 100 | > 100 | > 100 | > 10 | – | – | – | – | – | – | – | – | –
O=C(CC(=O)N1N=C(c2ccccc2)C(N=Nc2ccc(S(=O)(=O)CCOS(=O)(=O)O)cc2)C1=O)Nc1ccc(Cl)cc1 (stereo not given) | > 100 | > 100 | > 100 | > 100 | > 100 | > 100 | > 100 | > 100 | > 100 | 72.3 | – | – | – | – | – | – | – | – | –
N#Cc1c(/C=C/c2ccccc2)c2c([nH]c1=S)CCCCC2 | > 100 | > 100 | > 100 | > 100 | > 100 | > 100 | > 100 | > 100 | > 100 | > 100 | – | – | – | – | – | – | – | – | –
Cc1nc(N)c(N2CCN(S(=O)(=O)N(Cc3ccccc3)Cc3ccccc3)CC2)c(=O)[nH]1 | > 100 | 65.9 | > 100 | > 100 | 80.6 | – | 74.7 | 59.7 | > 100 | – | – | – | – | – | – | – | – | – | –
NS(=O)(=O)c1nnc(NS(=O)(=O)c2cccc3cccnc23)s1 | > 100 | > 100 | > 100 | > 100 | > 100 | > 100 | > 100 | > 100 | – | – | – | – | – | – | – | – | – | – | –
COc1cc2c3c(n(C)c(=O)c2cc1OC)-c1cc2c(cc1/C3=C\CCCCl)OCO2 | 40 | > 100 | > 100 | > 100 | – | 70.6 | > 100 | > 100 | > 100 | > 100 | 40.4 | – | – | – | – | – | – | – | –
N#Cc1sc2c(c1OC(=O)c1ccco1)c(=O)n(-c1ccccc1)c(=S)n2-c1ccccc1 | > 100 | 61.5 | 41.6 | 96 | 52.7 | 33.7 | > 100 | 77.5 | > 100 | > 10 | – | – | – | – | – | – | – | – | –
O=S(=O)(O)c1ccc(O)c(N=Nc2c(O)ccc3ccccc23)c1 | > 100 | > 100 | > 100 | > 100 | – | > 100 | > 100 | > 100 | – | > 100 | – | – | – | – | – | – | – | – | –
CCOP(=O)(OCC)C(Nc1ccc(Cl)cc1)c1ccc(F)cc1 (stereo not given) | 43.4 | 87.1 | 44.5 | 68.5 | 49 | 32.8 | > 100 | 40.8 | 54.1 | – | – | – | – | – | – | – | – | – | –
Cc1ccc2sc3c(NCCCN)nc4ccccc4c3c(=O)c2c1 | – | 5.13 | 3.42 | 4.51 | 3.21 | 3.35 | 3.69 | 4.57 | 4.09 | 3.26 | 1.8 | 2.19 | 2.05 | 1.61 | 2 | 1.76 | 1.79 | 1.86 | 1.89
COC1(OC)CC(CO)(COc2cc(Cl)nc(N)n2)C1 | > 100 | > 100 | > 100 | > 100 | > 100 | > 100 | > 100 | > 100 | – | > 100 | – | – | – | – | – | – | – | – | –
Cc1ccc(/C=c2\c(=O)[nH]c3nc4ccccc4c(=O)n23)cc1 | > 100 | 42.2 | > 100 | – | 43.7 | – | > 100 | > 100 | > 100 | – | – | – | – | – | – | – | – | – | –
C=C1c2c(n(S(=O)(=O)c3ccccc3)c3ccccc23)[C@@]2(C(=O)OC)CC3C=CC2N1C3 | > 100 | > 100 | > 100 | > 100 | > 100 | – | > 100 | > 100 | > 100 | > 100 | – | – | – | – | – | – | – | – | –
Cc1cc(N(CCC#N)CCC#N)ccc1/C(N=Nc1ccc(C(=O)O)cc1)=N\NC(=O)c1ccccc1 | > 100 | > 100 | > 100 | > 100 | 57 | > 100 | > 100 | > 100 | – | > 100 | – | – | – | – | – | – | – | – | –
O=c1c(O)c(-c2ccccc2)oc2c(CP(=O)(O)O)cccc12 | > 100 | > 100 | > 100 | > 100 | > 100 | > 100 | – | > 100 | – | > 100 | – | – | – | – | – | – | – | – | –
COC(=O)N[C@@H]1C[C@H]2CC[C@]1(O[Si](C(C)C)(C(C)C)C(C)C)C(=O)C2 | 69 | > 100 | > 100 | > 100 | – | > 100 | 39.5 | > 100 | 78.7 | 32 | – | – | – | – | – | – | – | – | –
